Read-outs that look alike come from different tables or passages of the source.
How the values were obtained:
Type in all cases: cell-based, human
Aβ38 = Aβ38 in FAD1 iPS cell-derived nerve cells (secondary screening); design: scale not given here
Experimental: (§1) To further study reproducibility of the candidate drugs obtained by the primary screening, secondary screening was conducted. In addition to Aβ40, Aβ42, Aβ42/40 ratio, Aβ38, Aβ43, sAPPα, sAPPβ were also studied and each numerical value was obtained.

sAPPβ = sAPPβ in FAD1 iPS cell-derived nerve cells (secondary screening); design: sAPPβ: scale not given here
Experimental: as §1

Aβ42/40 ratio = Aβ42/40 ratio in FAD1 iPS cell-derived nerve cells (primary/secondary screening, dose dependency); settings: secondary screening
Description: (§2) To perform induction from iPS cells to the cerebral cortex nerve early and with high reproducibility, iPS cells introduced with human Neurogenin 2 gene (NGN2) linked to doxycycline-inducible promoter by using PiggyBac were used (FIG. 1a, FIG. 1b, FIG. 4a and FIG. 4b). IPS cells prepared from 4 patients with familial Alzheimer's disease (FAD), 2 patients with sporadic Alzheimer's disease (SAD) and 4 healthy individuals (HC) were used. The iPS cells were established by the method described in Okita K et al., Nature.
(§3) Structural formulas (those in the form of salt or halide are also described as free form) and the general names of the candidate compounds are shown in Table 1.
as §1

Aβ42 = Aβ42 in FAD1 iPS cell-derived nerve cells (primary/secondary screening, dose dependency); settings: secondary screening, FAD1 iPS cell-derived nerve cells, numerical value (Aβ change rate)
Description: as §2, §3, §1

sAPPα = sAPPα in FAD1 iPS cell-derived nerve cells (secondary screening); design: scale not given here
Experimental: as §1

Aβ43 = Aβ43 in FAD1 iPS cell-derived nerve cells (secondary screening); design: scale not given here
Experimental: as §1

[1] = secondary screening, FAD1 iPS cell-derived nerve cells

| SMILES | Aβ38 (Aβ38) | sAPPβ (sAPPβ; [1]) | Ratio Aβ42/40 (Aβ42/40 ratio) | Aβ42 (Aβ42) | sAPPα (sAPPα; [1]) | Aβ43 (Aβ43) | sAPPβ (sAPPβ) | sAPPα (sAPPα) |
| --- | --- | --- | --- | --- | --- | --- | --- | --- |
| C[C@H](CCC(=O)O)[C@H]1CC[C@H]2[C@@H]3C(=O)C[C@@H]4CC(=O)CC[C@]4(C)[C@H]3CC(=O)[C@]12C [compound 103, DEHYDROCHOLIC ACID] | 1.09 | 0.78 | 0.99 | 0.95 | 0.75 | 1.01 | – | – |
| Cc1cc(CC(=O)O)n(C)c1C(=O)c1ccc(Cl)cc1 [compound 65, ZOMEPIRAC] | 0.92 | 0.76 | 0.85 | 0.79 | 0.73 | 0.83 | – | – |
| Nc1c2c(nc3ccccc13)CCCC2 [compound 18, TACRINE] | 1.18 | 1.23 | 1.02 | 1 | 1.04 | 1.21 | – | – |
| Cc1c(C(N)=O)cc([N+](=O)[O-])cc1[N+](=O)[O-] [compound 95, DINITOLMIDE] | 1 | 1.02 | 0.95 | 0.9 | 0.95 | 0.98 | – | – |
| CCN(CCCc1ccccc1)CCCc1ccccc1 [compound 7, ALVERINE] | 0.94 | 0.63 | 0.93 | 0.86 | 0.78 | 0.79 | – | – |
| C=CC1=C(C(=O)O)N2C(=O)[C@@H](NC(=O)/C(=N\O)c3csc(N)n3)[C@H]2SC1 [compound 63] | 0.95 | 1.01 | 0.87 | 0.79 | 0.82 | 0.9 | – | – |
| O=c1c2ccccc2[se]n1-c1ccccc1 [compound 45, EBSELEN] | 1.2 | 1.35 | 1.04 | 1 | 1.17 | 1.16 | – | – |
| CCCCCCCCCCCCCCCCCCCCCCO [compound 111, DOCOSANOL] | 1.03 | 0.83 | 0.9 | 0.86 | 0.79 | 0.83 | – | – |
| C=C[C@H]1CN2CC[C@H]1C[C@H]2[C@H](OC(=O)OCC)c1ccnc2ccc(OC)cc12 [compound 41, QUININE ETHYL CARBONATE] | 1.05 | 0.72 | 0.77 | 0.85 | 0.84 | 0.88 | – | – |
| CC1(C)C2CC[C@@]1(C)C(=O)C2 [compound 101, CAMPHOR (1R)] | 1.08 | 0.87 | 1.01 | 0.95 | 0.92 | 0.91 | – | – |
| CCCCOC(=O)c1ccc(N)cc1 [compound 58, BUTAMBEN] | 1.08 | 0.76 | 1.03 | 0.95 | 0.79 | 0.95 | – | – |
| CC(C)n1c(/C=C/[C@H](O)C[C@@H](O)CC(=O)O)c(-c2ccc(F)cc2)c2ccccc21 [compound 60, FLUVASTATIN] | 1.16 | 1.14 | 0.84 | 0.96 | 0.99 | 1.04 | – | – |
| CC(C)c1cccc(C(C)C)c1O [compound 87, PROPOFOL] | 0.99 | – | 0.91 | 0.88 | – | 0.88 | 1 | 0.94 |
| CC(C)CC(N(C)C)C1(c2ccc(Cl)cc2)CCC1 (stereo not drawn) [compound 126, SIBUTRAMINE] | 1.05 | 0.92 | 0.87 | 0.88 | 0.8 | 0.87 | – | – |
| CCCCC(=O)N(Cc1ccc(-c2ccccc2-c2nn[nH]n2)cc1)[C@H](C(=O)O)C(C)C [compound 48] | 1.14 | 1.13 | 0.9 | 0.97 | 1.14 | 1 | – | – |
| CC(=O)Nc1cccc(O)c1 [compound 93, METACETAMOL] | 0.95 | 0.89 | 0.86 | 0.77 | 0.83 | 0.74 | – | – |
| CN1CCc2cccc3c2[C@H]1Cc1ccc(O)c(O)c1-3 [compound 8, APOMORPHINE] | 1.08 | 0.78 | 1.01 | 0.93 | 0.8 | 1.01 | – | – |

| SMILES | Aβ38 (Aβ38) | sAPPβ (sAPPβ; [1]) | Ratio Aβ42/40 (Aβ42/40 ratio) | Aβ42 (Aβ42) | sAPPα (sAPPα; [1]) | Aβ43 (Aβ43) | sAPPβ (sAPPβ) | sAPPα (sAPPα) |
| --- | --- | --- | --- | --- | --- | --- | --- | --- |
| COc1ccccc1OCC(O)CN1CCN(CC(=O)Nc2c(C)cccc2C)CC1 (stereo not drawn) [compound 3, RANOLAZINE] | 1 | 0.61 | 0.89 | 0.85 | 0.64 | 0.82 | – | – |
| CCN(CC)C(C)CN1c2ccccc2Sc2ccccc21 (stereo not drawn) [compound 15, ETHOPROPAZINE] | 1.03 | 0.71 | 0.88 | 0.84 | 0.72 | 0.84 | – | – |
| Cc1cccc(C(=O)O)c1O [compound 67, HYDROXYTOLUIC ACID] | 0.92 | 0.66 | 0.86 | 0.79 | 0.83 | 0.77 | – | – |
| CCOc1ccc(NC(=O)CC(C)O)cc1 (stereo not drawn) [compound 70, BUCETIN] | 1.02 | 0.75 | 0.88 | 0.82 | 0.75 | 0.85 | – | – |
| CCN(CC)CCNC(=O)c1cc(Br)c(N)cc1OC [compound 86, BROMOPRIDE] | 1.07 | 0.85 | 0.84 | 0.84 | 1 | 0.9 | – | – |
| C/N=C(\NC#N)NCCSCc1nc[nH]c1C [compound 79, CIMETIDINE] | 1.03 | 0.88 | 1.04 | 0.98 | 0.87 | 0.92 | – | – |
| C#C[C@]1(O)CC[C@H]2[C@@H]3CCC4=Cc5oncc5C[C@]4(C)[C@H]3CC[C@@]21C [compound 102, DANAZOL] | 1.02 | 0.81 | 1.04 | 0.93 | 0.79 | 1.07 | – | – |
| CC1CC(OC(=O)C(O)c2ccccc2)CC(C)(C)C1 (stereo not drawn) [compound 40, CYCLANDELATE] | 1.09 | 0.84 | 0.8 | 0.88 | 0.92 | 0.98 | – | – |
| COc1cccc([C@@]2(O)CCCC[C@@H]2CN(C)C)c1 [compound 99, TRAMADOL] | 1.17 | 1.11 | 0.93 | 0.98 | 1.04 | 1.02 | – | – |
| CN1CCN(C2=Nc3ccccc3Oc3ccc(Cl)cc32)CC1 [compound 25, LOXAPINE] | 1.11 | 1.11 | 0.98 | 0.94 | 1.15 | 1.14 | – | – |
| C[C@H](CS)C(=O)N1CCC[C@H]1C(=O)O [compound 57, CAPTOPRIL] | 1.09 | 0.91 | 0.94 | 0.87 | 0.91 | 0.86 | – | – |
| NCCCCCC(=O)O [compound 49, AMINOCAPROIC ACID] | 1.1 | 0.9 | 1 | 0.96 | 0.99 | 0.97 | – | – |
| CCCCOc1ccc(C(=O)CCN2CCCCC2)cc1 [compound 55, DYCLONINE] | 1.07 | 0.76 | 0.99 | 0.94 | 0.83 | 0.9 | – | – |
| CCN(CC)CCNC(C(=O)OCCC(C)C)c1ccccc1 (stereo not drawn) [compound 33, CAMYLOFINE] | 1.12 | 0.71 | 0.85 | 0.9 | 0.89 | 0.88 | – | – |
| N[C@@H]1CONC1=O [compound 114, CYCLOSERINE] | 1.06 | 0.82 | 0.95 | 0.92 | 0.84 | 0.85 | – | – |
| CC(C)(Sc1cc(C(C)(C)C)c(O)c(C(C)(C)C)c1)Sc1cc(C(C)(C)C)c(O)c(C(C)(C)C)c1 [compound 96, PROBUCOL] | 0.75 | 1.07 | 0.7 | 0.6 | 1 | 0.65 | – | – |
| c1ccc2[nH]c(-c3cscn3)nc2c1 [compound 20, THIABENDAZOLE] | 1.05 | 0.67 | 0.88 | 0.84 | 0.79 | 0.79 | – | – |
